Measured values taken from ChEMBL document CHEMBL4507311, “Data for DCP probe A-1155463” (2021).

Assays:
[1] = biological target: Phosphatidylinositol 4-phosphate 5-kinase type-1 gamma (Homo sapiens) (UniProt O60331); details: Compound concentration 1000.0 nM
[2] = biological target: Serine/threonine-protein kinase pim-1 (Homo sapiens) (UniProt P11309); details: Compound concentration 1000.0 nM
[3] = biological target: Protein kinase C epsilon type (Homo sapiens) (UniProt Q02156); details: Compound concentration 1000.0 nM
Protein kinase C epsilon type (Homo sapiens), sequence (Q02156 whole entry): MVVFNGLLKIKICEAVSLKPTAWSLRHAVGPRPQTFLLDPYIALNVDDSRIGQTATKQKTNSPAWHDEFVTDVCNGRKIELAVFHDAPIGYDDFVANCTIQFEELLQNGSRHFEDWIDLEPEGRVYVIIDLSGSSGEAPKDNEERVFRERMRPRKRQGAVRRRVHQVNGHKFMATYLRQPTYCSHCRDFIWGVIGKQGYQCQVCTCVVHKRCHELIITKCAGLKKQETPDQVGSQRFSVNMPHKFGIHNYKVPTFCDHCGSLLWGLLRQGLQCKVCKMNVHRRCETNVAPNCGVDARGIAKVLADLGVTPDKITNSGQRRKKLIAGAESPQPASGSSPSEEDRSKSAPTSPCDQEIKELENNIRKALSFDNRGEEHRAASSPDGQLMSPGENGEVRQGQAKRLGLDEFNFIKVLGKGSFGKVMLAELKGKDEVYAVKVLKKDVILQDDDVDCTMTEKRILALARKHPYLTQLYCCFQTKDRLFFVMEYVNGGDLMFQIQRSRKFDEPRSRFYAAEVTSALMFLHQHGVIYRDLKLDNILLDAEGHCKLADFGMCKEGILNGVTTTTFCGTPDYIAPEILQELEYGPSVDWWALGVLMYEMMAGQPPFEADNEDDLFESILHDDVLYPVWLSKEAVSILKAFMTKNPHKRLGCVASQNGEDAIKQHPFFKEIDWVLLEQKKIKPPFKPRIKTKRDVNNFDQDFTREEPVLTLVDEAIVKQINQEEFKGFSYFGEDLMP

[4] = biological target: Rho-associated protein kinase 1 (Homo sapiens) (UniProt Q13464); details: Compound concentration 1000.0 nM
[5] = biological target: Fibroblast growth factor receptor 2 (Homo sapiens) (UniProt P21802); details: Compound concentration 1000.0 nM
[6] = biological target: Serine/threonine-protein kinase 32A (Homo sapiens) (UniProt Q8WU08); details: Compound concentration 1000.0 nM
[7] = test system: Tyrosine-protein kinase ABL1 (Homo sapiens), P00519 [T315I]; details: Compound concentration 1000.0 nM
[8] = biological target: Mitotic checkpoint serine/threonine-protein kinase BUB1 (Homo sapiens) (UniProt O43683); details: Compound concentration 1000.0 nM
[9] = biological target: Casein kinase I isoform gamma-1 (Homo sapiens) (UniProt Q9HCP0); details: Compound concentration 1000.0 nM
Casein kinase I isoform gamma-1 (Homo sapiens), sequence (Q9HCP0 whole entry, looked up, canonical isoform): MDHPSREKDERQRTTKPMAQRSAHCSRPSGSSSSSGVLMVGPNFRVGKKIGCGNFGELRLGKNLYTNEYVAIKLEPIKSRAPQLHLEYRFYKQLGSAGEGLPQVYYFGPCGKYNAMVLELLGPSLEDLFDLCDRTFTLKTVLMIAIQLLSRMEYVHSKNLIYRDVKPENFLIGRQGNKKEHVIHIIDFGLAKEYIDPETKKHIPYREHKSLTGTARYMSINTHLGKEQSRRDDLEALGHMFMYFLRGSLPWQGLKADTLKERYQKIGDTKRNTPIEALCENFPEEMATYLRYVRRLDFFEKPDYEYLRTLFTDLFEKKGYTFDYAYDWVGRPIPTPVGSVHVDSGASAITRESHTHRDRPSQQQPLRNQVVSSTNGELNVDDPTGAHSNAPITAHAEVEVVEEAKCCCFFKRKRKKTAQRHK

[10] = test system: Receptor-type tyrosine-protein kinase FLT3 (Homo sapiens), P36888 [D835Y]; details: Compound concentration 1000.0 nM
[11] = biological target: Sigma non-opioid intracellular receptor 1 (Homo sapiens, UniProt Q99720); details: Compound concentration 10.0 uM
Sigma non-opioid intracellular receptor 1, sequence (Q99720 whole entry): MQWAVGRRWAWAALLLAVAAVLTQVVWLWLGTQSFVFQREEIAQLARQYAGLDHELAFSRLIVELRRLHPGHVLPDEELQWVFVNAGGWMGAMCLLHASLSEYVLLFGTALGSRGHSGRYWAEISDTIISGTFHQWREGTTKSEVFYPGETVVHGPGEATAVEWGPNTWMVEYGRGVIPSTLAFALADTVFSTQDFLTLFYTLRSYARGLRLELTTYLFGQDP

[12] = biological target: Proto-oncogene tyrosine-protein kinase Src (Homo sapiens) (UniProt P12931); details: Compound concentration 1000.0 nM
[13] = biological target: Calcium/calmodulin-dependent protein kinase type 1D (Homo sapiens) (UniProt Q8IU85); details: Compound concentration 1000.0 nM
[14] = biological target: Serine/threonine-protein kinase RIO2 (Homo sapiens) (UniProt Q9BVS4); details: Compound concentration 1000.0 nM
[15] = biological target: Activin receptor type-2B (Homo sapiens) (UniProt Q13705); details: Compound concentration 1000.0 nM
[16] = biological target: Insulin receptor (Homo sapiens) (UniProt P06213); details: Compound concentration 1000.0 nM
[17] = test system: Phosphatidylinositol 4,5-bisphosphate 3-kinase catalytic subunit alpha isoform (Homo sapiens), P42336 [H1047Y]; details: Compound concentration 1000.0 nM
[18] = biological target: Receptor-interacting serine/threonine-protein kinase 1 (Homo sapiens) (UniProt Q13546); details: Compound concentration 1000.0 nM
[19] = biological target: Serine/threonine-protein kinase ULK3 (Homo sapiens) (UniProt Q6PHR2); details: Compound concentration 1000.0 nM
[20] = biological target: Dual specificity protein kinase CLK1 (Homo sapiens) (UniProt P49759); details: Compound concentration 1000.0 nM
[21] = biological target: Interferon-induced, double-stranded RNA-activated protein kinase (Homo sapiens) (UniProt P19525); details: Compound concentration 1000.0 nM
[22] = biological target: Tyrosine-protein kinase ZAP-70 (Homo sapiens) (UniProt P43403); details: Compound concentration 1000.0 nM
[23] = biological target: Ankyrin repeat and protein kinase domain-containing protein 1 (Homo sapiens) (UniProt Q8NFD2); details: Compound concentration 1000.0 nM
[24] = biological target: Myosin light chain kinase family member 4 (Homo sapiens) (UniProt Q86YV6); details: Compound concentration 1000.0 nM
[25] = biological target: Cyclin-dependent kinase 7 (Homo sapiens) (UniProt P50613); details: Compound concentration 1000.0 nM
[26] = biological target: Serine/threonine-protein kinase NLK (Homo sapiens) (UniProt Q9UBE8); details: Compound concentration 1000.0 nM
Serine/threonine-protein kinase NLK (Homo sapiens), sequence (Q9UBE8 whole entry): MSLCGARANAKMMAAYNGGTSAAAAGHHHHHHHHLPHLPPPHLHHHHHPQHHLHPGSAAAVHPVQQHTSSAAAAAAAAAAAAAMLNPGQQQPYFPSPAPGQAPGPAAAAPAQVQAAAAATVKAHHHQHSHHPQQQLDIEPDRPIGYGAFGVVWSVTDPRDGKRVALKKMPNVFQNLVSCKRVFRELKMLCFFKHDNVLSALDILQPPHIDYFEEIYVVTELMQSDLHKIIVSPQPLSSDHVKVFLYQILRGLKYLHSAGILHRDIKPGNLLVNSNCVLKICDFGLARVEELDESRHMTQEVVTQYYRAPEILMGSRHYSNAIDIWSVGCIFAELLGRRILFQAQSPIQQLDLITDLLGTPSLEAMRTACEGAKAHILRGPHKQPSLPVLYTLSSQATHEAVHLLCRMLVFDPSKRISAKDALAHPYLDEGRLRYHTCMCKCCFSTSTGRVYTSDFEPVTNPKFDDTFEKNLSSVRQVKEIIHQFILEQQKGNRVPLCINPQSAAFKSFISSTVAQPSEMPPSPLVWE

[27] = biological target: Testis-specific serine/threonine-protein kinase 3 (Homo sapiens) (UniProt Q96PN8); details: Compound concentration 1000.0 nM
Testis-specific serine/threonine-protein kinase 3 (Homo sapiens), sequence (Q96PN8 whole entry): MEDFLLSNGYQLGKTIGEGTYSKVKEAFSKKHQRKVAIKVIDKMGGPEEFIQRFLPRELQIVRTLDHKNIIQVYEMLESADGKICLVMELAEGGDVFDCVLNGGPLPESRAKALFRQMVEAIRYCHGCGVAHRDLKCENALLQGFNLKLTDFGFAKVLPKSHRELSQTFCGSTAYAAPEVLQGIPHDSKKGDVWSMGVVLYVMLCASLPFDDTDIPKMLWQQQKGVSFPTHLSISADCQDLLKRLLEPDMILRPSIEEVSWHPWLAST

[28] = biological target: Myotonin-protein kinase (Homo sapiens) (UniProt Q09013); details: Compound concentration 1000.0 nM
[29] = biological target: G protein-coupled receptor kinase 3 (Homo sapiens) (UniProt P35626); details: Compound concentration 1000.0 nM
[30] = biological target: Death-associated protein kinase 3 (Homo sapiens) (UniProt O43293); details: Compound concentration 1000.0 nM
[31] = biological target: Calcium/calmodulin-dependent protein kinase type 1 (Homo sapiens) (UniProt Q14012); details: Compound concentration 1000.0 nM
Calcium/calmodulin-dependent protein kinase type 1 (Homo sapiens), sequence (Q14012 whole entry, looked up): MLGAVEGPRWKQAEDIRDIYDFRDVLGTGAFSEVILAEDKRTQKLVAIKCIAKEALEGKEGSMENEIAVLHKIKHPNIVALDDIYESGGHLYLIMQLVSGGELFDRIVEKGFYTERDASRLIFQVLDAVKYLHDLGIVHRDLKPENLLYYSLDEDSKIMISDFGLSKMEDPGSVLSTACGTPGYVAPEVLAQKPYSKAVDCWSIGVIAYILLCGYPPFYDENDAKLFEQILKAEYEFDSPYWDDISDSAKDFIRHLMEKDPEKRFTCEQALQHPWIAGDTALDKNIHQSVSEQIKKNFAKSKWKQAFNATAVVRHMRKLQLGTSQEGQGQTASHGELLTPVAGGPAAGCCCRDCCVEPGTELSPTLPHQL

[32] = biological target: Cyclin-dependent kinase 15 (Homo sapiens) (UniProt Q96Q40); details: Compound concentration 1000.0 nM
Cyclin-dependent kinase 15 (Homo sapiens), sequence (Q96Q40 whole entry): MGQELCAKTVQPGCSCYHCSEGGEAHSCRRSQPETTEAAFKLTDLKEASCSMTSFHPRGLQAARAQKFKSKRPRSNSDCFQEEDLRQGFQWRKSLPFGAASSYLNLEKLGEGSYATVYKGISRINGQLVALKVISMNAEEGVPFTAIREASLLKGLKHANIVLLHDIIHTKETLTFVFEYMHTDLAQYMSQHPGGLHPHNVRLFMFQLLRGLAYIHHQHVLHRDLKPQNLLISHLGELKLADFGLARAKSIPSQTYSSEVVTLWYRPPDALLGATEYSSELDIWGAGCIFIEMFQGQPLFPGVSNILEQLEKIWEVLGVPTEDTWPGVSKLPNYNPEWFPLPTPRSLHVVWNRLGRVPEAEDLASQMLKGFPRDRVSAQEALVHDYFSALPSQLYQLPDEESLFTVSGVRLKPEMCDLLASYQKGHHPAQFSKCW

[33] = biological target: Cyclin-dependent kinase 8 (Homo sapiens) (UniProt P49336); details: Compound concentration 1000.0 nM
[34] = biological target: Histamine H3 receptor (Homo sapiens, UniProt Q9Y5N1); details: Compound concentration 10.0 uM
[35] = biological target: Bone morphogenetic protein receptor type-2 (Homo sapiens) (UniProt Q13873); details: Compound concentration 1000.0 nM
[36] = biological target: MAP kinase-activated protein kinase 2 (Homo sapiens) (UniProt P49137); details: Compound concentration 1000.0 nM
[37] = biological target: Macrophage colony-stimulating factor 1 receptor (Homo sapiens) (UniProt P07333); details: Compound concentration 1000.0 nM
[38] = biological target: Leucine-rich repeat serine/threonine-protein kinase 2 (Homo sapiens) (UniProt Q5S007); details: Compound concentration 1000.0 nM
[39] = biological target: Serine/threonine-protein kinase Nek2 (Homo sapiens) (UniProt P51955); details: Compound concentration 1000.0 nM
[40] = biological target: Serine/threonine-protein kinase ULK2 (Homo sapiens) (UniProt Q8IYT8); details: Compound concentration 1000.0 nM
Serine/threonine-protein kinase ULK2 (Homo sapiens), sequence (Q8IYT8 whole entry): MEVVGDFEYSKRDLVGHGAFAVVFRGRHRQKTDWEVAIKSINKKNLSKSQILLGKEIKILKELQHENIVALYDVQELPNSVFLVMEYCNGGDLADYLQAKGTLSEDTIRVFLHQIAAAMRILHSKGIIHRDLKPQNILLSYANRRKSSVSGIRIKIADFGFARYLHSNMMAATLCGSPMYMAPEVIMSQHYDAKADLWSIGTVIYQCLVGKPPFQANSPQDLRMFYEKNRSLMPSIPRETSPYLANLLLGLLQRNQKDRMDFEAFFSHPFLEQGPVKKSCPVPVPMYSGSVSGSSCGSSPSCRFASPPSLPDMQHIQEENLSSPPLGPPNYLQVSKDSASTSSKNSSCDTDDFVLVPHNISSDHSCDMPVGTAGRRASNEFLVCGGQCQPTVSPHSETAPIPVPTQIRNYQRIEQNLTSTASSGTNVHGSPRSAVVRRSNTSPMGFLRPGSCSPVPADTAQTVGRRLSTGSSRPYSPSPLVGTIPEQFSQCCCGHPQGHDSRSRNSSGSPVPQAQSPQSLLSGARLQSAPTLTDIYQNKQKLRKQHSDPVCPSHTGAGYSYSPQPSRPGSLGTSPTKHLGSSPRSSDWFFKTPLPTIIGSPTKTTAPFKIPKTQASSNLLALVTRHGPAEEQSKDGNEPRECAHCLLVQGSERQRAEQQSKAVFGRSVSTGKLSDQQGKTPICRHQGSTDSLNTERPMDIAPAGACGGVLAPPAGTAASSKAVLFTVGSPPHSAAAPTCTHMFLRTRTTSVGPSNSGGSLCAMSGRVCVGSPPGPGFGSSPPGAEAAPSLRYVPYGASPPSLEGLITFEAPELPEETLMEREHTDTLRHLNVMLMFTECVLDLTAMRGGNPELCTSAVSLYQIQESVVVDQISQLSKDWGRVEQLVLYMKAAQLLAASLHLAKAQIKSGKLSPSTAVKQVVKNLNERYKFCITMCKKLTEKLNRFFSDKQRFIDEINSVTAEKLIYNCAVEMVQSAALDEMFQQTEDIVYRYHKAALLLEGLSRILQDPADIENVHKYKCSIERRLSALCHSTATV

[41] = biological target: Beta-adrenergic receptor kinase 1 (Homo sapiens) (UniProt P25098); details: Compound concentration 1000.0 nM
Beta-adrenergic receptor kinase 1 (Homo sapiens), sequence (P25098 whole entry): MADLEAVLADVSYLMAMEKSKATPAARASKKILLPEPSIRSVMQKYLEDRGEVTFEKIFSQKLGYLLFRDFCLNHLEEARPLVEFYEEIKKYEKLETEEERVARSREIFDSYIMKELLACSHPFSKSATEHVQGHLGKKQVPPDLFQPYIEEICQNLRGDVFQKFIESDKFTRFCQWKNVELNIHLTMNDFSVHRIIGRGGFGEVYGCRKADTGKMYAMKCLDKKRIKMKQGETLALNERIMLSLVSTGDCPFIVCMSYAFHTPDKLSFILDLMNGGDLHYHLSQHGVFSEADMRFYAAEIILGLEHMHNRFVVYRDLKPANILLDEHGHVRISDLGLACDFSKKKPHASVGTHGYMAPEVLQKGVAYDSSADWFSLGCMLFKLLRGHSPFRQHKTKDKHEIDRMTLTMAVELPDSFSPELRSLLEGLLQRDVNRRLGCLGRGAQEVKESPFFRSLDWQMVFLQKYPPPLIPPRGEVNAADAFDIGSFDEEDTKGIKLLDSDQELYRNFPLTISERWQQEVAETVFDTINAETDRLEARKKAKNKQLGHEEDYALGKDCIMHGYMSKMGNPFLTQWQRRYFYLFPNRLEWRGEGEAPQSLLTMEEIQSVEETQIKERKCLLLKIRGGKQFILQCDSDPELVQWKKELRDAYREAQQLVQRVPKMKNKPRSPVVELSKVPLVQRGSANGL

[42] = biological target: Macrophage-stimulating protein receptor (Homo sapiens) (UniProt Q04912); details: Compound concentration 1000.0 nM
[43] = biological target: Sigma intracellular receptor 2 (Homo sapiens, UniProt Q5BJF2); details: Compound concentration 10.0 uM
Sigma intracellular receptor 2, sequence (Q5BJF2 whole entry): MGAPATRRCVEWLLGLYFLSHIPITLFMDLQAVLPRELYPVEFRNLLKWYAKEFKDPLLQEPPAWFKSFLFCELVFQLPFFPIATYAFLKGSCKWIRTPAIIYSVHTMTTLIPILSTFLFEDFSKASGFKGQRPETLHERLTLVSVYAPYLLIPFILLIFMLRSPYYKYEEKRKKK

[44] = biological target: 5'-AMP-activated protein kinase catalytic subunit alpha-2 (Homo sapiens) (UniProt P54646); details: Compound concentration 1000.0 nM
[45] = biological target: Dual specificity tyrosine-phosphorylation-regulated kinase 1A (Homo sapiens) (UniProt Q13627); details: Compound concentration 1000.0 nM

## CN(C)CC#Cc1ccc(OCCCc2sc(N3CCc4cccc(C(=O)Nc5nc6ccccc6s5)c4C3)nc2C(=O)O)c(F)c1 [A-1155463]
[1]
  residual activity: 100%
[2]
  residual activity: 100%
[3]
  residual activity: 100%
[4]
  residual activity: 100%
[5]
  residual activity: 98%
[6]
  residual activity: 100%
[7]
  residual activity: 92%
[8]
  residual activity: 81%
[9]
  residual activity: 91%
[10]
  residual activity: 83%
[11]
  inhibition: 53.3%
[12]
  residual activity: 100%
[13]
  residual activity: 90%
[14]
  residual activity: 100%
[15]
  residual activity: 100%
[16]
  residual activity: 92%
[17]
  residual activity: 100%
[18]
  residual activity: 92%
[19]
  residual activity: 100%
[20]
  residual activity: 88%
[21]
  residual activity: 100%
[22]
  residual activity: 100%
[23]
  residual activity: 69%
[24]
  residual activity: 99%
[25]
  residual activity: 100%
[26]
  residual activity: 80%
[27]
  residual activity: 84%
[28]
  residual activity: 100%
[29]
  residual activity: 92%
[30]
  residual activity: 90%
[31]
  residual activity: 93%
[32]
  residual activity: 100%
[33]
  residual activity: 69%
[34]
  inhibition: 53.3%
[35]
  residual activity: 100%
[36]
  residual activity: 88%
[37]
  residual activity: 87%
[38]
  residual activity: 100%
[39]
  residual activity: 92%
[40]
  residual activity: 100%
[41]
  residual activity: 100%
[42]
  residual activity: 99%
[43]
  inhibition: 83%
[44]
  residual activity: 99%
[45]
  residual activity: 88%
